Results: patent US20250041461A1, “[177LU] LUTETIUM-PSMA I&T COMPOSITION AND DOSIMETRY, KIT, METHOD OF MAKING, AND METHOD OF USING THEREOF” (Curium US LLC, priority 2023, published 2025)
Several values for one entry are separate records, joined by “and”; a condition that tells them apart may be missing. Equal values may be shown once.

Tests used:
[1] = Example 10 dosimetry, 27 mCRPC patients, planar whole-body conjugate imaging and SPECT/CT, MIRD method; type: in vivo, human
Procedure: Radiation dosimetry of [^177Lu]Lu-PSMA-I&T was calculated in 27 patients with mCRPC based on biodistribution data from planar whole-body conjugate imaging at 1, 24, 48, 72, and 168 hours and, for 7 of them, SPECT/CT imaging at 48-72 hours post injection of their first cycle of [^177Lu]Lu-PSMA-I&T (6.8±10% GBq).
Regions of interest were drawn on the planar images.
Volumes of interest were constructed on the SPECT and CT
For each subject, kinetic data were modeled to determine
normalized number of disintegrations in organs and tissues, from which the absorbed dose estimates were computed using the MIRD method.

[2] = Plasma PK modelling (gamma counting, bi-exponential fit), cycles 1 and 3; type: in vivo, human
Procedure: PK plasma samples were collected at pre-Infusion, 1 h, 4 h, 24 h, 48 h, and 168 h, and counted for radioactivity. Blood samples were first centrifuged to extract plasma, and then the radioactivity in plasma was counted in a gamma counter.
Whole blood samples were collected as detailed in the protocol Schedule of Events i.e. pre-injection, and then at 1 h, 4 h, 24 h, 48 h, and 168 h post-injection. The samples were first centrifuged to separate plasma, and the radioactivity in the plasma was then measured using a gamma counter. Plasma concentrations were subsequently fitted with a bi-exponential function to derive outcome parameters such as the half-life and clearance rate of the radiopharmaceutical in the plasma.
Gamma-counted plasma samples were quality controlled using the same ^177Lu reference standard by measuring 0.5 ml of the 100 mL in the saline bag. For each patient, triplicates were made and measured right before all plasma samples were counted. A long-lived isotope was also counted to ensure that the protocol was properly followed by each site. Similarly to the imaging standard, when the gamma counter efficiency factor differed by more than 10% compared to that at site set-up, an investigation was launched to determine the cause of this variation, and if it reflected a difference in data acquisition.
Plasma data was fitted with a bi-exponential curve.
Blood samples were obtained for 15 out of 16 patients at cycle 3. Patients 12-004 had blood taken only at the 24 h timepoint and, therefore, was not included in the plasma PK analysis. Consistent with Cycle 1, the time-course of plasma concentrations was similar among the patients. The ranges of PK parameters obtained at cycle 3 were similar to those from Cycle 1 data (Table 6). Cycle 3 PK plasma modeling results (n=15)

[3] = 27 patients, first cycle, 6.8 GBq, planar imaging
[4] = Bladder Wall, 27 patients, first cycle
[5] = Heart Wall, 27 patients, first cycle
[6] = Kidneys, 27 patients, first cycle
[7] = Lacrimal Glands, 27 patients, first cycle
[8] = Left Colon, 27 patients, first cycle
[9] = Liver, 27 patients, first cycle
[10] = Red Marrow, 27 patients, first cycle
[11] = Salivary Glands, 27 patients, first cycle
[12] = Spleen, 27 patients, first cycle
[13] = Thyroid, 27 patients, first cycle
[14] = cumulative administered activity of 27.2 GBq, four cycles of 6.8 GBq
[15] = Cycle 1, patient 42-030 excluded

## O=C([O-])CC[C@H](NC(=O)N[C@@H](CCCCNC(=O)CCCCCCC(=O)NCCCC[C@@H](NC(=O)[C@@H](Cc1ccccc1)NC(=O)[C@@H](Cc1ccc(O)c(I)c1)NC(=O)CC[C@H](C(=O)[O-])N1CCN(CC(=O)[O-])CCN(CC(=O)[O-])CCN(CC(=O)[O-])CC1)C(=O)[O-])C(=O)[O-])C(=O)[O-].[177Lu+3].[H+].[H+].[H+].[H+].[H+] [^177Lu-PSMA I&T, (3S,7S,26R,29R,32R,37R)-29-benzyl-32-(4-hydroxy-3-iodobenzyl)-5,13,20,28,31,34-hexaoxo-37-(4,7,10-tris(carboxymethyl)-1,4,7,10-tetraazacyclododecan-1-yl)-4,6,12,21,27,30,33-heptaazaheptatriacontane-1,3,7,26,37-pentacarboxylic acid; lutetium-177 (III)]
[1]; [3]
  absorbed dose, kidneys: 0.73 Gy/GBq
  absorbed dose, lacrimal glands: 1.2 Gy/GBq
  average dose, red marrow: 0.034 Gy/GBq
  average dose, salivary glands: 0.34 Gy/GBq
[1]; [4]
  dose estimate, Max: 0.36 mGy/MBq or Gy/GBq
  dose estimate, Mean: 0.33 mGy/MBq or Gy/GBq
  dose estimate, Min: 0.14 mGy/MBq or Gy/GBq
[1]; Bladder, SPLASH
  Absorbed Dose, Mean: 0.33 Gy/GBq
[1]; Bone Marrow, SPLASH
  Absorbed Dose, Mean: 0.034 Gy/GBq
[1]; [5]
  dose estimate, Max: 0.15 mGy/MBq or Gy/GBq
  dose estimate, Mean: 0.036 mGy/MBq or Gy/GBq
  dose estimate, Min: 0.017 mGy/MBq or Gy/GBq
[1]; Heart Wall, Splash
  dose estimate, Mean: 0.04 Gy/GBq
[1]; Heart, SPLASH
  Absorbed Dose, Mean: 0.036 Gy/GBq
[1]; [6]
  dose estimate, Max: 1.8 mGy/MBq or Gy/GBq
  dose estimate, Mean: 0.73 mGy/MBq or Gy/GBq
  dose estimate, Min: 0.22 mGy/MBq or Gy/GBq
[1]; Kidneys, Splash
  Absorbed Dose, Mean: 0.73 Gy/GBq
  dose estimate, Mean: 0.73 Gy/GBq
[1]; [7]
  dose estimate, Max: 6.7 mGy/MBq or Gy/GBq
  dose estimate, Mean: 1.2 mGy/MBq or Gy/GBq
  dose estimate, Min: 0.38 mGy/MBq or Gy/GBq
[1]; Lacrimal Glands, SPLASH
  Absorbed Dose, Mean: 1.2 Gy/GBq
[1]; Lacrimal gland, Splash
  dose estimate, Mean: 1.20 Gy/GBq
[1]; [8]
  dose estimate, Max: 1.5 mGy/MBq or Gy/GBq
  dose estimate, Mean: 0.52 mGy/MBq or Gy/GBq
  dose estimate, Min: 0.013 mGy/MBq or Gy/GBq
[1]; Left colon, Splash
  Absorbed Dose, Mean: 0.52 Gy/GBq
  dose estimate, Mean: 0.52 Gy/GBq
[1]; [9]
  dose estimate, Max: 0.24 mGy/MBq or Gy/GBq
  dose estimate, Mean: 0.051 mGy/MBq or Gy/GBq
  dose estimate, Min: 0.025 mGy/MBq or Gy/GBq
[1]; Liver, Splash
  Absorbed Dose, Mean: 0.051 Gy/GBq
  dose estimate, Mean: 0.051 Gy/GBq
[1]; [10]
  dose estimate, Max: 0.11 mGy/MBq or Gy/GBq
  dose estimate, Mean: 0.034 mGy/MBq or Gy/GBq
  dose estimate, Min: 0.014 mGy/MBq or Gy/GBq
[1]; Red Marrow, Splash
  dose estimate, Mean: 0.03 Gy/GBq
[1]; [11]
  dose estimate, Max: 1.5 mGy/MBq or Gy/GBq
  dose estimate, Mean: 0.34 mGy/MBq or Gy/GBq
  dose estimate, Min: 0.14 mGy/MBq or Gy/GBq
[1]; Salivary glands, Splash
  Absorbed Dose, Mean: 0.34 Gy/GBq
  dose estimate, Mean: 0.34 Gy/GBq
[1]; [12]
  dose estimate, Max: 0.80 mGy/MBq or Gy/GBq
  dose estimate, Mean: 0.16 mGy/MBq or Gy/GBq
  dose estimate, Min: 0.022 mGy/MBq or Gy/GBq
[1]; Spleen, Splash
  Absorbed Dose, Mean: 0.16 Gy/GBq
  dose estimate, Mean: 0.16 Gy/GBq
[1]; [13]
  dose estimate, Max: 0.77 mGy/MBq or Gy/GBq
  dose estimate, Mean: 0.17 mGy/MBq or Gy/GBq
  dose estimate, Min: 0.011 mGy/MBq or Gy/GBq
[1]; Thyroid, Splash
  Absorbed Dose, Mean: 0.17 Gy/GBq
  dose estimate, Mean: 0.17 Gy/GBq
[1]; Urinary bladder wall, Splash
  dose estimate, Mean: 0.33 Gy/GBq
[1]; [14]
  cumulative absorbed dose, kidneys: 19.9 Gy
  cumulative absorbed dose, red marrow: 0.91 Gy
[2]; Cycle 1, individual patients
  Peak Concentration Value: 0.05 fIA/L (4×) and 0.04 fIA/L and 0.03 fIA/L
[2]; Cycle 1, individual patients, time of first post-administration sample
  Time of Peak Concentration: 56.00 min and 47.00 min and 53.00 min and 60.00 min (6×) and 51.00 min (2×) and 58.00 min and 61.00 min (2×) and 50.00 min and 63.00 min and 57.00 min and 55.00 min and 52.00 min (2×) and 68.00 min and 71.00 min and 65.00 min and 33.00 min and 40.00 min and 69.00 min
[2]; [15]
  AUC Total, Mean: 22.77 fIA/L × min
  AUC Total, max: 37.86 fIA/L × min
  AUC Total, median: 20.84 fIA/L × min
  AUC Total, min: 3.07 fIA/L × min
  Peak Concentration Value, Mean: 0.04 fIA/L
  Peak Concentration Value, max: 0.07 fIA/L
  Peak Concentration Value, median: 0.04 fIA/L
  Peak Concentration Value, min: 0.01 fIA/L
  Time of Peak Concentration: 33.00 min
  Time of Peak Concentration, median: 59.00 min
  Vd, Mean: 234.64 L
  Vd, max: 1365.03 L
  Vd, median: 157.12 L
  Vd, min: 54.60 L
[2]; cycle 3, max (n=15)
  Time of Peak Concentration: 68.00 min
[2]; cycle 3, median (n=15)
  Time of Peak Concentration: 60.00 min
[2]; cycle 3, min (n=15)
  Time of Peak Concentration: 55.00 min
